Measurements as given in patent US9726659B2, “CMPF as a biomarker for diabetes and associated methods” (The Governing Council of the University of Toronto, priority 2012, dated 2017).

What was measured:
[1] = tested on: MIN6 cells; assay: Annexin V and propidium iodide staining for apoptosis and necrosis; assay type: cell-based, murine; settings: 5 mM, 3 hrs
Experimental: A) MIN6 cells were treated for 4 hrs with 0 uM (EtOH vehicle control), 20 uM or 200 uM CMPF prior to being loaded with Annexin V and propidium iodide fluorescent dyes, and counterstained with Hoechst dye. […] B) Primary CD1 islets were dispersed and treated with vehicle control (0 CMPF, black), 20 uM CMPF (grey), or 200 uM CMPF (white) for 48 hours, then stained with Annexin V, Propidium Iodide and Hoechst dye. Quantification of double positive staining was assessed by an Arrayscan VTI HCS reader.
Next the mechanism underlying the observed impairment in GSIS following treatment with CMPF was investigated. To determine whether CMPF was inhibiting GSIS by inducing beta cell apoptosis, Annexin V and Propidium Iodide staining was performed in MIN6 cells treated with vehicle (EtOH), 20 uM or 200 uM CMPF for 4 hrs to look for apoptosis and necrosis respectively. […] MIN6 cells treated with 5 mM H2O2 for 3 hrs were used as a positive control (FIG. 4).

[2] = tested on: primary murine islets; assay: Glucose- and KCl-stimulated insulin secretion in primary murine islets; assay type: cell-based; settings: co-treatment with 500 μM NAC, 24 hr
Experimental: LG=2.8 mM glucose, HG=16.7 mM glucose, KCl=16.7 mM glucose+30 mM KCl. *p<0.05.
Since beta cell failure is a major underlying cause of both GDM and T2D, the effect of increased CMPF on beta cell function was investigated both in vitro and in vivo. Using physiological concentrations of CMPF (20 uM and 200 uM, as observed in our NGT-pregnant and GDM-pregnant samples respectively (FIG. 2)), as well as a vehicle control (EtOH), its effect was studied on glucose-stimulated insulin secretion (GSIS) and insulin secretion in response to direct depolarization using the secretagogue KCl in an immortalized murine beta cell line (MIN6), as well as primary isolated human and murine islets (FIG. 3A). […] Therefore, high physiologically relevant levels of CMPF impair GSIS.

[3] = tested on: murine islets; assay: Total insulin content in murine islets; assay type: cell-based; settings: co-treatment with 500 μM NAC, 24 hr
Experimental: Murine islets were treated for 24 hrs with vehicle control (0 CMPF), 20 uM (20 CMPF), or 200 uM (200 CMPF) CMPF, and assessed for total insulin content and mRNA expression. […] Decreased expression of insulin processing enzymes PCSK1, 2 and CpE (F), (G), (H) indicate that CMPF may also impair post-translational insulin processing. Finally, CMPF causes decreased expression of the beta cell glucose transporter GLUT2, and GCK, the rate-limiting enzyme critical for glucose metabolism (I) and (J), perhaps impairing glucose sensing and metabolism. In all cases n=4, *P<0.05.
In the absence of apoptosis and necrosis, CMPF must be impairing GSIS by causing beta cell dysfunction. First, the effect of CMPF treatment on insulin biosynthesis was investigated to determine if insulin is available to be released upon stimulation. MIN6, murine and human islets were treated with vehicle control, 20 uM and 200 uM CMPF for 4 hrs (MIN6) or 24 hrs (islets), and total insulin content measured. […] Lower total insulin content may be due to either defective insulin processing from proinsulin to mature insulin, or insufficient insulin transcription. To determine the mechanism through which CMPF is reducing total insulin content, quantitative PCR (qPCR) was performed on RNA that was isolated from murine islets treated with either vehicle control or 200 uM CMPF for 24 hrs.

[4] = tested on: mouse islets; assay: ROS accumulation in isolated islets (mitoSOX red, CM-H2-DCFDA); assay type: cell-based; settings: co-treatment with 500 μM NAC, 24 hr
Experimental: A) Proinsulin in the media of 24 hr treated islets (n=4/group). B) Mitochondrial membrane potential (MMP) following acute addition of vehicle control or 200 μM of CMPF (N=3/group). C) ROS levels in 4- and 24-hour treated mouse islets with representative images (N=10-15 islets/mouse from 4 mice/group). D) Expression of antioxidant genes Cat and (e) Ucp2 (n=4/group). F) ROS accumulation in 24 hr-treated islets treated with 500 μM NAC (n=10 islets/mouse from 4 mice/group). G) GSIS and (h) total insulin content from 24 hr-treated islets co-treated with 500 μM NAC (n=4/group). Western blots showing (i) Ser9 phosphorylation of GSK3β, (j) Ser473 phosphorylation of AKT (n=3/group). K) Immunofluorescent staining showing nuclear translocation of FOXO1 and (l) PDX1 with CMPF and NAC treatment (n=3-6). Quantification of nuclear percentage of (m) FOXO1 and (n) PDX1 based on immunofluorescent staining with CMPF and NAC treatment. O) Western blots showing protein abundance of PDX1 and FOXO1. Values are mean+/−SEM. Student's t-test (a, c-j, m-o), one-way ANOVA (b). *P<0.05, **P<0.01, ***P<0.001.
The level of superoxide and H2O2 were determined using mitoSOX red and 2′,7′-dichlorodihydro fluorescein diacetate (CM-H2-DCFDA) respectively (Molecular Probes, Invitrogen, Canada) in isolated islets treated with either vehicle control or 200 μM CMPF for 4 or 24 hours, as previously described (Lee et al. 2009). […]

[5] = tested on: dispersed CD1 mouse islet cells; assay: Immunofluorescent staining of FOXO1 and PDX1 localization; assay type: cell-based; settings: treatment with NAC
Experimental: The cellular localization of FOXO1 and PDX1 were determined in dispersed CD1 mouse islet cells using immunofluorescence. The presence of the organic anion transporters (OATs) were determined in dispersed human islet cells also using immunofluorescence. Staining was performed as previously described (Diao et al., 2008). Images were acquired using a confocal microscope (Quorum Wave FX Spinning Disc; Perkin Elmer, Waltham M L, USA) and Volocity software (Perkin Elmer).
To determine the mechanism through which CMPF decreases insulin biosynthesis we examined its effect on these key regulators. Under normal conditions, AKT and GSK3β have reciprocal activities. Active pAKT phosphorylates and inactivates GSK3β, preventing phosphorylation of downstream targets (Humphrey et al., 2010). […] FOXO1 is normally sequestered in the cytosol due to phosphorylation by AKT (Kitamura et al., 2005). […] Altered activity of these transcription factors is further confirmed by decreased mRNA levels of key target genes including Inst, transcription factors Pdx1 and Mafa, proinsulin processing enzymes CpE, Pc1 and Pc2, and the glucose transporter Glut2 (Boucher et al., 2006; Kaneto et al. 2008) (FIG. 18a).

[6] = tested on: CD1 mouse islets; assay: GSIS and insulin content of CMPF-treated islets with OAT inhibitors; assay type: cell-based
Description: A) Microarray analysis of human islets showing expression of OAT transporters and beta-cell genes (n=3). Validation of OAT expression in human islets by (b) RT-PCR, (c) western blot, and (d) immunofluorescent staining with insulin (n=3-5). Human kidney samples are from the HK2 human proximal tubule cell line. GSIS from murine islets co-treated with OAT inhibitors (e) Probenecid, (f) benzylpenicillin (PCG) and (g) p-aminohippurate (PAH) (n=4/group). h) Total insulin content from murine islets co-treated with CMPF and PCG (n=4). Values mean+/−SEM. Student's t-test (a, e-h). *P<0.05, **P<0.01, ***P<0.001.
To determine if the OAT transporters are responsible for CMPF transport into beta cells, CD1 mouse islets were pre-treated 1 mM Probenecid prior to the addition of CMPF to ensure blockage of the channels and complete exclusion of CMPF from the cells. A dosage of 1 mM Probenecid was selected based on previous evidence that this concentration was sufficient to inhibit anion transport from beta cells without any observed effect on glucose-stimulated insulin secretion (Arkhammar et al. 1989). Islets were pre-treated with 1 mM Probenecid for 3 hours prior to the addition of 200 uM CMPF. After 24 hours cells were assessed by GSIS. Treatment with 200 uM CMPF alone produced a significant decrease in GSIS under both high glucose and KCl-stimulated conditions, consistent with previous findings, while treatment with 1 mM Probenecid for 27 hours had no effect on GSIS compared to vehicle controls. […] Therefore, probenecid inhibits the effect of CMPF. Similar results were obtained using the OAT3-specific inhibitor PCG. Islets were again pre-treated for 3 hours with 300 uM PCG prior to 24-hour 200 uM CMPF treatment (FIG. 14B).
To determine if OATs are responsible for CMPF transport into beta-cells, we utilized inhibitors of OAT function. Probenecid is a non-specific OAT-blocker (Miyamoto et al., 2012). Treatment of islets with 1 mM probenecid for 24 hrs rescued insulin secretion from CMPF-treated islets to control levels (FIG. 19e). To determine which OAT is primarily responsible for CMPF transport into beta-cells, we treated islets with 300 μM of benzylpenicillin (PCG), an OAT3-specific inhibitor, or 50 μM of paminohippurate (PAH), an OAT1-specific inhibitor (Deguchi et al., 2005). Consistent with previous reports that OAT3 is the dominant CMPF transporter (Deguchi et al., 2005), PCG was able to rescue insulin secretion and insulin content from CMPF-treated islets to control levels (FIG. 19f,h). However, treatment with PAH had no effect on secretion (FIG. 19g). Therefore, CMPF is transported into the beta-cell through OAT3, and blockage of this transporter prevents CMPF from impairing GSIS and insulin biosynthesis.

[7] = molecular target: T1, OAT3 (Rattus norvegicus, UniProt Q9R1U7); settings: concentrations of PCG that selectively inhibit OAT3; cited from earlier work
T1 construct: host or cells: kidney (in vivo, per the cited study)
T1 sequence (Q9R1U7 1-536): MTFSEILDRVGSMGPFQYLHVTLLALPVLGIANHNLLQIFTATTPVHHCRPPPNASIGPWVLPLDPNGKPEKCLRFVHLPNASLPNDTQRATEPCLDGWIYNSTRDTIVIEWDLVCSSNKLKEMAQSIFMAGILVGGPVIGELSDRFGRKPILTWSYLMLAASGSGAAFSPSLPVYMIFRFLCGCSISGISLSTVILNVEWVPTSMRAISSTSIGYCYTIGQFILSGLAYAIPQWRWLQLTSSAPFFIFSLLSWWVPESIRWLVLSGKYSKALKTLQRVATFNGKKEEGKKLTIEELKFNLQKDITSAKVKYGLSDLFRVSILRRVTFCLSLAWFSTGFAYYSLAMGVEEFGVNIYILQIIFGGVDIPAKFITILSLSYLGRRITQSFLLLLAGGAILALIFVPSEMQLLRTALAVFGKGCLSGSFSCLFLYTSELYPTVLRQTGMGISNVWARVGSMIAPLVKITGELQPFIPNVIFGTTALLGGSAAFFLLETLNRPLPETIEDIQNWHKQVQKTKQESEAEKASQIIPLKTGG

[8] = tested on: mice; assay: Probenecid IP twice daily for 3 days in mice; assay type: in vivo
Experimental: Mice were injected IP with 150 mg/kg probenecid twice daily for 3 days as previously described (Baudoux et al., 2012).

[9] = tested on: OAT transporter; settings: 5 mg/kg CMPF co-administered with 150 mg/kg probenecid; cited from earlier work
[10] = 150 mg/kg IP twice daily for 3 days

With OO [H2O2, reference compound] the “Annexin V and propidium iodide staining (positive control)” value [1] was “only observed in the positive control”.

With CC(=O)N[C@@H](CS)C(=O)O [NAC, N-Acetyl-Cysteine, reference compound] the “insulin secretion (GSIS) in CMPF-treated islets” value [2] was “rescued”, the “insulin content in CMPF-treated islets” value [3] was “rescued” and the “CMPF-induced increase in ROS production” value [4] was “inhibited”. For the same compound, the “CMPF-induced translocation of FOXO1” value [5] was “prevented” and the “CMPF-induced translocation of PDX1” value [5] was “prevented”.

With Nc1ccc(C(=O)NCC(=O)O)cc1 [PAH, p-aminohippurate] the “insulin secretion of CMPF-treated islets” value ([6]; 50 μM) was “no effect”.

In the case of CC1(C)S[C@@H]2[C@H](NC(=O)Cc3ccccc3)C(=O)N2[C@H]1C(=O)O [PCG, benzylpenicillin], the “insulin secretion, inhibitor alone” value ([6]; 300 uM) is reported as “no significant effect”, the “effect of 200 uM CMPF on insulin secretion under high glucose” value ([6]; 300 uM, 3 hour pre-treatment, then 24 hours with CMPF) is reported as “inhibited the effect of CMPF” and the “insulin content of CMPF-treated islets” value ([6]; 300 μM, to control levels) is reported as “rescue”. For the same compound, the CMPF secretion prevented [7] was 65-75%.

In the case of CCCN(CCC)S(=O)(=O)c1ccc(C(=O)O)cc1 [probenecid], the “effect of 200 uM CMPF on high-glucose and KCl-stimulated insulin secretion” value ([6]; 1 mM, 3 hour pre-treatment, then 24 hours with CMPF) is reported as “completely abolished the effect of CMPF”, the “GSIS, inhibitor alone vs vehicle” value ([6]; 1 mM, 27 hours) is reported as “no effect” and the body weight [8, 10] is reported as “No differences”. For the same compound, the fasting blood glucose [8, 10] was “No differences”, the “plasma uric acid concentrations” value ([8]; 150 mg/kg twice daily) was “significantly reduced” and the “glucose tolerance (2 g/kg OGTT)” value ([8]; on the 4th day) was “no significant difference”. For the same compound, the “plasma clearance of CMPF” value [9] was “significantly reduced”.
